# Experimental data from ChEMBL document CHEMBL3991601, “The target landscape of clinical kinase drugs” (Science, 2017).
# pKd: −log10 of the molar value. The source made the active and inactive calls. Rule as the data show it, for most assays here: actives have a measured Kd and inactives only a lower limit.
# Key:
# [1] = target: T1, Phosphorylase b kinase gamma catalytic chain, liver/testis isoform (Homo sapiens, UniProt P15735)
# T1 sequence (P15735 whole entry): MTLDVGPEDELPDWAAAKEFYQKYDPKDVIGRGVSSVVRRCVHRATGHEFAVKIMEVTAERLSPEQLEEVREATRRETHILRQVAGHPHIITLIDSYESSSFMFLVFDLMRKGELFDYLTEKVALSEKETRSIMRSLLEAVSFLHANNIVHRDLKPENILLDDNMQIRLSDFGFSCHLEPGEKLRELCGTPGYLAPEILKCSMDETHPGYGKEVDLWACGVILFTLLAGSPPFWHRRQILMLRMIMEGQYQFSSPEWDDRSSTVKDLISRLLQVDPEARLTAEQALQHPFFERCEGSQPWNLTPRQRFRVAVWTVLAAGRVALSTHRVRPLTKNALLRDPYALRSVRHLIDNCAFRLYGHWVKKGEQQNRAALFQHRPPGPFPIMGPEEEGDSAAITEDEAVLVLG
# [2] = target: Mitogen-activated protein kinase 11 (Homo sapiens, UniProt Q15759)
# Mitogen-activated protein kinase 11, sequence (Q15759 whole entry): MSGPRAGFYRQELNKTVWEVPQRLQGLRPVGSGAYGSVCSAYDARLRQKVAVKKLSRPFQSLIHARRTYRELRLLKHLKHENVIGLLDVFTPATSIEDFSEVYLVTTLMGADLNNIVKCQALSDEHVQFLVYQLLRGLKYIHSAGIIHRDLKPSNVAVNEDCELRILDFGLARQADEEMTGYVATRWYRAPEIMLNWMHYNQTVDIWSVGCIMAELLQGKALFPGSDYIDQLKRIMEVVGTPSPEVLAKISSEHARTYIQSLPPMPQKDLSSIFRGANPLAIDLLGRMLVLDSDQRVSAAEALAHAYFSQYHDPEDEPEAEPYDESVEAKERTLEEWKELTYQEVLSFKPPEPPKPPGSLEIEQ
# [3] = target: Tyrosine-protein kinase ABL1 (Homo sapiens, UniProt P00519)
# Tyrosine-protein kinase ABL1, sequence (P00519 whole entry): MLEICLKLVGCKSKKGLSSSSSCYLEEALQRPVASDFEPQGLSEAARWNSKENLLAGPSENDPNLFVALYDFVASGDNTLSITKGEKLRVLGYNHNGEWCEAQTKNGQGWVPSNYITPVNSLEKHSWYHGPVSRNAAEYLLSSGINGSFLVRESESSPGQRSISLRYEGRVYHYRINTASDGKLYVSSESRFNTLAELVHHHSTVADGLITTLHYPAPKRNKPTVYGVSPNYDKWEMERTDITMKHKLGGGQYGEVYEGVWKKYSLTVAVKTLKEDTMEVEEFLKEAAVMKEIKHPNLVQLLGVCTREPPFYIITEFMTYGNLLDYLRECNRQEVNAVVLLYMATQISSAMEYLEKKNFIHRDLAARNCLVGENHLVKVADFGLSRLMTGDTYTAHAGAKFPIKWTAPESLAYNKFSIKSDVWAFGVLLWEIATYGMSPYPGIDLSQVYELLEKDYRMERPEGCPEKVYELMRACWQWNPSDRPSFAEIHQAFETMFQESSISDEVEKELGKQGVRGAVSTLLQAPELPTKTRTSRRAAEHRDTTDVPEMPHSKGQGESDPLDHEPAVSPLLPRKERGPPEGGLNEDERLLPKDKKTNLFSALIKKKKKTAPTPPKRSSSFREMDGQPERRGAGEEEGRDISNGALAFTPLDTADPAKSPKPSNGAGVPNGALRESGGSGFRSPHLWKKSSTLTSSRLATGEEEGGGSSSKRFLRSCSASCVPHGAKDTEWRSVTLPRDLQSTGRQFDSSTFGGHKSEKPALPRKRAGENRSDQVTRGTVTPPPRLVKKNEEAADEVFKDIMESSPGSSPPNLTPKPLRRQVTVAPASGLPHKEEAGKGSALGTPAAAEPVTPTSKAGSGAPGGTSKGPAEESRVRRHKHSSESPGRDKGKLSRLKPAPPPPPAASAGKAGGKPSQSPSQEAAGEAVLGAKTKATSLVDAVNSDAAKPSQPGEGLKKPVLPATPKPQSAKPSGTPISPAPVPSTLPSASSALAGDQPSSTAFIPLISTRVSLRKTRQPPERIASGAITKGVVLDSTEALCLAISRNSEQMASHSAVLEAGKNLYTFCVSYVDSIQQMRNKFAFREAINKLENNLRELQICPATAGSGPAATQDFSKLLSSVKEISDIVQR
# [4] = target: BMP-2-inducible protein kinase (Homo sapiens, UniProt Q9NSY1)
# BMP-2-inducible protein kinase, sequence (Q9NSY1 whole entry): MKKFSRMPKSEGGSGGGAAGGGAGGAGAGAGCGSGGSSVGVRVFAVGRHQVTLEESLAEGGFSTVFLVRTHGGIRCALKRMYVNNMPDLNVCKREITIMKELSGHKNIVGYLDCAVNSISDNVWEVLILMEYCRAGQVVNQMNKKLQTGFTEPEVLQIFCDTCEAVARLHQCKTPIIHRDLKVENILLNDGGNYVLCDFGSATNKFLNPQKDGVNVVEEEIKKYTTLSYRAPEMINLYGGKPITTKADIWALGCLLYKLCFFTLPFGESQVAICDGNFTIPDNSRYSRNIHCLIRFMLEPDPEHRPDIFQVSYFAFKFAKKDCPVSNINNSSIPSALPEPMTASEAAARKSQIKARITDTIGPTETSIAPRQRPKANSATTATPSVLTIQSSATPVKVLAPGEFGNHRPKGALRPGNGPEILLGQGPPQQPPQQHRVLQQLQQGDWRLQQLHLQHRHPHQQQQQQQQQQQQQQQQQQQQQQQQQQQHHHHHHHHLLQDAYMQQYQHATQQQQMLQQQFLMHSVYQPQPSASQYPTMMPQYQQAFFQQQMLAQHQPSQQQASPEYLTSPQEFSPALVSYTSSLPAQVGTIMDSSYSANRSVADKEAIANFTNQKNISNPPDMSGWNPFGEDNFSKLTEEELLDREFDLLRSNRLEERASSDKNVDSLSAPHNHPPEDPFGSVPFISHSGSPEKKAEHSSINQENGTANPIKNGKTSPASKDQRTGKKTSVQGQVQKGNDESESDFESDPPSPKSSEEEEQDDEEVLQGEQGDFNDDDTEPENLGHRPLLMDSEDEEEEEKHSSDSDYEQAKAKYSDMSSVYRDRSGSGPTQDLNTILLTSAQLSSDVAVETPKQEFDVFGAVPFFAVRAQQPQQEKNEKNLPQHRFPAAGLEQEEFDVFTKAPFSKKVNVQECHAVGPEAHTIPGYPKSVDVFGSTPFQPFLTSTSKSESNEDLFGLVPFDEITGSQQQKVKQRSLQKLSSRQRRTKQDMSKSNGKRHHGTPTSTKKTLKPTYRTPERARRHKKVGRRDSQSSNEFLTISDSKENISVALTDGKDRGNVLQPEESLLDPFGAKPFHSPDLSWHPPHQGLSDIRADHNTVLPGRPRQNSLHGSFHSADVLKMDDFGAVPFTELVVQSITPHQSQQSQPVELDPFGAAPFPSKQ
# [5] = target: Structural maintenance of chromosomes protein 2 (Homo sapiens, UniProt O95347)
# Structural maintenance of chromosomes protein 2, sequence (O95347 whole entry): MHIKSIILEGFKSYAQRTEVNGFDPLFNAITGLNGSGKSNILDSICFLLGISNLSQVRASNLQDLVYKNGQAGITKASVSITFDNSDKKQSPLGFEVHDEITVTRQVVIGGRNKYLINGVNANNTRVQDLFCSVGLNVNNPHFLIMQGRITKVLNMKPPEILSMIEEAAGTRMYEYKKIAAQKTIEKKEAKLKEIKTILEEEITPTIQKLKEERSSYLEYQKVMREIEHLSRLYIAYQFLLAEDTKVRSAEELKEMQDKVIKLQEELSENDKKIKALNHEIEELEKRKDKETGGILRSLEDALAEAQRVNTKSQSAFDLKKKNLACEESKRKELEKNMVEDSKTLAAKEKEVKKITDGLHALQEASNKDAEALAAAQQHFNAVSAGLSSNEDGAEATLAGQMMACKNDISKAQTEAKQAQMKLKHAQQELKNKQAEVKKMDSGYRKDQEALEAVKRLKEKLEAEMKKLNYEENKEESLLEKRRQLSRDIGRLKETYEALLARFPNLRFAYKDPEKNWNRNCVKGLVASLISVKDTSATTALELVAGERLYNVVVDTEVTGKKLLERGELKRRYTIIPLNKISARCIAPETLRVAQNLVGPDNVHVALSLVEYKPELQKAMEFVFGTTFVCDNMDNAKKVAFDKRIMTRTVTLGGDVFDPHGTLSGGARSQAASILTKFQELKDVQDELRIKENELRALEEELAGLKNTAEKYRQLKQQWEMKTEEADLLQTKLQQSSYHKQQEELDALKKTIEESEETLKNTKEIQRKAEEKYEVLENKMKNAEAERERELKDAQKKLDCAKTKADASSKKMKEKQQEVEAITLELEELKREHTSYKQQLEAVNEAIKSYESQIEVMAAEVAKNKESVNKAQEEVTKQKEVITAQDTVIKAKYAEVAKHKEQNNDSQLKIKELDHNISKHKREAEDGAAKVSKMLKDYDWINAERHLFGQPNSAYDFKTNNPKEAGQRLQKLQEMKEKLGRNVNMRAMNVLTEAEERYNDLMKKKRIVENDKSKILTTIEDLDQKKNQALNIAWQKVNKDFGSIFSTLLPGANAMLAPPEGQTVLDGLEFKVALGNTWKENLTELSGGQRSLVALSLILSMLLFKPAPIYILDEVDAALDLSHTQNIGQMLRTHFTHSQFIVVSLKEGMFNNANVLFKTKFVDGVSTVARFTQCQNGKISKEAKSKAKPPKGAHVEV
# [6] = target: AP2-associated protein kinase 1 (Homo sapiens, UniProt Q2M2I8)
# [7] = target: T2, MAP kinase-activated protein kinase 5 (Homo sapiens, UniProt Q8IW41)
# T2 sequence (Q8IW41 whole entry): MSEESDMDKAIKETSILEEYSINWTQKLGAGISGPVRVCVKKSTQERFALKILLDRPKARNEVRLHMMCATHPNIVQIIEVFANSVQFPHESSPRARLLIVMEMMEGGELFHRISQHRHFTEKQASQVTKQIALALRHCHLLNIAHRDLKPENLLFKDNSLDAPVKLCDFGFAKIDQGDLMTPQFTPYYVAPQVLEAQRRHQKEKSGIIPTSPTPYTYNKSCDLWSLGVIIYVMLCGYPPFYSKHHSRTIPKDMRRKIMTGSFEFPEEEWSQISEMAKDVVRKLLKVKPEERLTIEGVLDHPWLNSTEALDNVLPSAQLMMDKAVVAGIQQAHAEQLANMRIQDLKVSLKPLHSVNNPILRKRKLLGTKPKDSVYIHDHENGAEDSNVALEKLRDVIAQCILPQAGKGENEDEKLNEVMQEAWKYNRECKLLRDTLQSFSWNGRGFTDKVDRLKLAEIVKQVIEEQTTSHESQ
# [8] = target: T3, Serine/threonine-protein kinase TBK1 (Homo sapiens, UniProt Q9UHD2)
# T3 sequence (Q9UHD2 whole entry): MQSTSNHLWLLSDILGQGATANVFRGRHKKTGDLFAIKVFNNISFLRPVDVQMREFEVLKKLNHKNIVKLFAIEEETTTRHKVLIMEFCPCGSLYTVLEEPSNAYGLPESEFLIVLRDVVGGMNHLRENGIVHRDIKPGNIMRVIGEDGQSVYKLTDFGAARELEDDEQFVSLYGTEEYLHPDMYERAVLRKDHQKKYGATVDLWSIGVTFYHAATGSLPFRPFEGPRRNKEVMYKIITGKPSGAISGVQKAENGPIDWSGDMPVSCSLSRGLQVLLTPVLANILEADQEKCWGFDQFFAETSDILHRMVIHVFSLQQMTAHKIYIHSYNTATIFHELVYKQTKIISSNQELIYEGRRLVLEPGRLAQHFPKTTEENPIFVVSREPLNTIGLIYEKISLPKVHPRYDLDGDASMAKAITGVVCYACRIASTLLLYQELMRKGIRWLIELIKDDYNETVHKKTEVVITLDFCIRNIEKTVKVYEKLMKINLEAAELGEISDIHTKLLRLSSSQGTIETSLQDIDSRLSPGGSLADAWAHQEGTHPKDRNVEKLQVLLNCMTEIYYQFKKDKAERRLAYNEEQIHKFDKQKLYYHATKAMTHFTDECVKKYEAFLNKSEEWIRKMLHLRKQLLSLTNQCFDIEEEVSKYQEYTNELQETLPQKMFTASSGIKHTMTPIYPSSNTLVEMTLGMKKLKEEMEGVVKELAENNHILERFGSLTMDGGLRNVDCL
# [9] = target: Tyrosine-protein kinase ABL2 (Homo sapiens, UniProt P42684)
# [10] = target: Fibroblast growth factor receptor 1 (Homo sapiens, UniProt P11362)
# Fibroblast growth factor receptor 1, sequence (P11362 whole entry): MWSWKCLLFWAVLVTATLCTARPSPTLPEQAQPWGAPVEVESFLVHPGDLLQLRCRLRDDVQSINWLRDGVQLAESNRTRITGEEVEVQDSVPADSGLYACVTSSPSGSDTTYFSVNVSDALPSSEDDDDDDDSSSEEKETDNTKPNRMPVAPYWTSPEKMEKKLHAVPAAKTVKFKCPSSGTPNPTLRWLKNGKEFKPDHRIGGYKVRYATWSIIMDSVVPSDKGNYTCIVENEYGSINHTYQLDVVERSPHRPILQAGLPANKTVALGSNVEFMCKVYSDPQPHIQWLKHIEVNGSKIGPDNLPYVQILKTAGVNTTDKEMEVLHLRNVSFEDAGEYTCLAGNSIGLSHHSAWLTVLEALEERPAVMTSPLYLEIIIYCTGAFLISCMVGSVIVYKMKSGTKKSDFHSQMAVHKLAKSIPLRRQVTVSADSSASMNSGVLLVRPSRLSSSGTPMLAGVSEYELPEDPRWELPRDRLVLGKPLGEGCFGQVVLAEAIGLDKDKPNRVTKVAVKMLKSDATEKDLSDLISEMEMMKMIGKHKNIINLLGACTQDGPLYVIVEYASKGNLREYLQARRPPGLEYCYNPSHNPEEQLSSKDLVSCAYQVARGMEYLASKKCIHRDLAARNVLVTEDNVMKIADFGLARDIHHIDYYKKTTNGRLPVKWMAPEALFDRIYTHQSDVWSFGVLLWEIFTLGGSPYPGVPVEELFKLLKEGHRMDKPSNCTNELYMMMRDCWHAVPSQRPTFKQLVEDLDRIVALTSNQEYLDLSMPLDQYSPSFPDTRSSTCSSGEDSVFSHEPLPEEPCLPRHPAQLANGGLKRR
# [11] = target: Tyrosine-protein kinase JAK1 (Homo sapiens, UniProt P23458)
# [12] = target: T4, Tyrosine--tRNA ligase, cytoplasmic (Homo sapiens, UniProt P54577)
# T4 sequence (P54577 whole entry): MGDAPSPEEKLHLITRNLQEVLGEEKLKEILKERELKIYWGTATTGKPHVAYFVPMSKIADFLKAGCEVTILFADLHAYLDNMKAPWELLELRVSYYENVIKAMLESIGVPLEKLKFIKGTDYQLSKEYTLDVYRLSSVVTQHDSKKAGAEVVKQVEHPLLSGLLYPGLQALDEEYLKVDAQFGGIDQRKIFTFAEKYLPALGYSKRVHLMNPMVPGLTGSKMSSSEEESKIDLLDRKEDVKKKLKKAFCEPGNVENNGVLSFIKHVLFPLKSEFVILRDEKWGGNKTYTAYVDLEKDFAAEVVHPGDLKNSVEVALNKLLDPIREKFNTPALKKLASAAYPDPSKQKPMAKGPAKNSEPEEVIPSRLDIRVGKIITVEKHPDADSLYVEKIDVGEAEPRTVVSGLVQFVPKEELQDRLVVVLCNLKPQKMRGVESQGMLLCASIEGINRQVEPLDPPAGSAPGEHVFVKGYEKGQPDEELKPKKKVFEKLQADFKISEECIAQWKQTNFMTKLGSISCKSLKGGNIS
# Also: in the data inactive means no Kd found up to 30 µM.
Compound,Kd [1],Kd [2],Kd [3],Kd [4],Kd [5],Kd [6],Kd [7],Kd [8],Kd [9],Kd [10],Kd [11],Kd [12],pKd [3]
COc1cc2nccc(Oc3ccc(NC(=O)C4(C(=O)Nc5ccc(F)cc5)CC4)cc3)c2cc1OC [CABOZANTINIB],> 30 µM (inactive),> 30 µM (inactive),1.1 µM (active),> 30 µM (inactive),> 30 µM (inactive),> 30 µM (inactive),> 30 µM (inactive),> 30 µM (inactive),0.918 µM (active),> 30 µM (inactive),> 30 µM (inactive),> 30 µM (inactive),
O=C(Nc1ccc(OC(F)(F)F)cc1)c1sccc1NCc1ccnc2ccccc12 [OSI-930],> 30 µM (inactive),> 30 µM (inactive),> 30 µM (inactive),> 30 µM (inactive),> 30 µM (inactive),> 30 µM (inactive),> 30 µM (inactive),> 30 µM (inactive),> 30 µM (inactive),> 30 µM (inactive),> 30 µM (inactive),> 30 µM (inactive),
Cc1cc(Nc2nc(N[C@@H](C)c3ncc(F)cn3)ncc2Cl)n[nH]1 [AZD-1480],> 30 µM (inactive),> 30 µM (inactive),> 30 µM (inactive),> 30 µM (inactive),> 30 µM (inactive),> 30 µM (inactive),> 30 µM (inactive),> 30 µM (inactive),> 30 µM (inactive),0.777 µM (active),> 30 µM (inactive),> 30 µM (inactive),
COc1cccc(Nc2ncnn3ccc(CN4CC[C@@H](N)[C@H](O)C4)c23)c1 [BMS-690514],4.62 µM (active),> 30 µM (inactive),0.128 µM (active),1.71 µM (active),> 30 µM (inactive),1.41 µM (active),> 30 µM (inactive),> 30 µM (inactive),0.04 µM (active),> 30 µM (inactive),> 30 µM (inactive),> 30 µM (inactive),
COc1cc2ncnc3c2cc1OCCCCCN(C)Cc1ccc(Br)cc1N3 [JNJ-26483327],> 30 µM (inactive),> 30 µM (inactive),> 30 µM (inactive),> 30 µM (inactive),> 30 µM (inactive),> 30 µM (inactive),> 30 µM (inactive),> 30 µM (inactive),> 30 µM (inactive),> 30 µM (inactive),> 30 µM (inactive),> 30 µM (inactive),
CCc1cc2c(cc1N1CCC(N3CCOCC3)CC1)C(C)(C)c1[nH]c3cc(C#N)ccc3c1C2=O [ALECTINIB],1.71 µM (active),> 30 µM (inactive),> 30 µM (inactive),> 30 µM (inactive),> 30 µM (inactive),> 30 µM (inactive),> 30 µM (inactive),> 30 µM (inactive),> 30 µM (inactive),> 30 µM (inactive),> 30 µM (inactive),> 30 µM (inactive),
CNC(=O)c1cccc(-c2ccc3c(N4CCOC[C@@H]4C)nc(N4CCOC[C@@H]4C)nc3n2)c1 [VISTUSERTIB],> 30 µM (inactive),> 30 µM (inactive),> 30 µM (inactive),> 30 µM (inactive),> 30 µM (inactive),> 30 µM (inactive),> 30 µM (inactive),> 30 µM (inactive),> 30 µM (inactive),> 30 µM (inactive),> 30 µM (inactive),> 30 µM (inactive),
CNC(=O)c1cc(COc2nnc(Nc3ccc(Cl)cc3)c3ccoc23)ccn1 [TELATINIB],> 30 µM (inactive),> 30 µM (inactive),> 30 µM (inactive),> 30 µM (inactive),> 30 µM (inactive),> 30 µM (inactive),> 30 µM (inactive),> 30 µM (inactive),> 30 µM (inactive),> 30 µM (inactive),> 30 µM (inactive),> 30 µM (inactive),
Cn1c(=O)c(F)c(Nc2ccc(I)cc2F)c2c(=O)n(C[C@@H](O)CO)cnc21 [TAK-733],> 30 µM (inactive),> 30 µM (inactive),> 30 µM (inactive),> 30 µM (inactive),> 30 µM (inactive),> 30 µM (inactive),> 30 µM (inactive),> 30 µM (inactive),> 30 µM (inactive),> 30 µM (inactive),> 30 µM (inactive),> 30 µM (inactive),
CC[C@@](C)(Nc1ccnc(-c2c[nH]c3ncccc23)n1)C(=O)NCC(F)(F)F [DECERNOTINIB],> 30 µM (inactive),> 30 µM (inactive),,5.75 µM (active),> 30 µM (inactive),4.25 µM (active),> 30 µM (inactive),> 30 µM (inactive),7.07 µM (active),> 30 µM (inactive),> 30 µM (inactive),> 30 µM (inactive),6.07
C=CCN(/C=C1/C(=O)O[C@H](COC)[C@@]2(C)C1=C(O)C(=O)C1=C2[C@H](OC(C)=O)C[C@]2(C)C(=O)CC[C@@H]12)CC=C [SONOLISIB],> 30 µM (inactive),> 30 µM (inactive),> 30 µM (inactive),> 30 µM (inactive),> 30 µM (inactive),> 30 µM (inactive),> 30 µM (inactive),> 30 µM (inactive),> 30 µM (inactive),> 30 µM (inactive),> 30 µM (inactive),,
CCOc1ccn(-c2ccc(F)cc2)c(=O)c1C(=O)Nc1ccc(Oc2ccnc(N)c2Cl)c(F)c1 [BMS-777607],> 30 µM (inactive),> 30 µM (inactive),0.523 µM (active),> 30 µM (inactive),> 30 µM (inactive),> 30 µM (inactive),> 30 µM (inactive),> 30 µM (inactive),,> 30 µM (inactive),> 30 µM (inactive),> 30 µM (inactive),
CCN1CCN(Cc2ccc(Nc3ncc(F)c(-c4cc(F)c5nc(C)n(C(C)C)c5c4)n3)nc2)CC1 [ABEMACICLIB],> 30 µM (inactive),> 30 µM (inactive),> 30 µM (inactive),56 µM (active),> 30 µM (inactive),,> 30 µM (inactive),> 30 µM (inactive),> 30 µM (inactive),> 30 µM (inactive),> 30 µM (inactive),> 30 µM (inactive),
